Active and inactive are the calls of the source. How the calls were made is not given here.
System: CCRIS mutagenicity, Ames/micronucleus/aberration tests
Test: CCRIS mutagenicity studies
Description: The CCRIS database contains chemical records with carcinogenicity, mutagenicity, tumor promotion, and tumor inhibition test results. It was developed by the National Cancer Institute (NCI). Data are derived from studies cited in primary journals, current awareness tools, NCI reports, and other sources. Test results have been reviewed by experts in carcinogenesis and mutagenesis.
CCRIS provides historical information from the years 1985 - 2011. It is no longer updated.
This is an archive assay for CCRIS mutagenicity studies.

[1] = Test System: AMES SALMONELLA TYPHIMURIUM, Strain/Indicator: TA98, Metabolic Activation: RAT, LIVER, S-9, AROCLOR 1254, Method: STANDARD PLATE
[2] = Test System: AMES SALMONELLA TYPHIMURIUM, Strain/Indicator: TA98, Metabolic Activation: NONE, Method: STANDARD PLATE
[3] = Test System: AMES SALMONELLA TYPHIMURIUM, Strain/Indicator: TA100, Metabolic Activation: NONE, Method: STANDARD PLATE

C1=Cc2c(cc3ccc4cccc5ccc2c3c45)CC1
mutagenic call [1]: active; positive
mutagenic call (Test System: AMES SALMONELLA TYPHIMURIUM, Strain/Indicator: TA1537, Metabolic Activation: RAT, LIVER, S-9, AROCLOR 1254, Method: STANDARD PLATE): active; positive
mutagenic call (Test System: AMES SALMONELLA TYPHIMURIUM, Strain/Indicator: TA1538, Metabolic Activation: RAT, LIVER, S-9, AROCLOR 1254, Method: STANDARD PLATE): active; positive

Cc1ccc2cc3c(cc2c1)-c1cccc2cccc-3c12
mutagenic call (Test System: AMES SALMONELLA TYPHIMURIUM, Strain/Indicator: TA100, Metabolic Activation: RAT, LIVER, S-9, AROCLOR 1254): active; positive

Nc1ncnc2nc[nH]c12
mutagenic call (Test System: AMES SALMONELLA TYPHIMURIUM, Strain/Indicator: TA97, Metabolic Activation: NONE, Method: STANDARD PLATE): inactive; negative
mutagenic call (Test System: AMES SALMONELLA TYPHIMURIUM, Strain/Indicator: TA97, Metabolic Activation: RAT, LIVER, S-9, AROCLOR 1254, Method: STANDARD PLATE): inactive; negative
mutagenic call [2]: inactive; negative
mutagenic call [1]: active; positive
mutagenic call [3]: inactive; negative
mutagenic call (Test System: AMES SALMONELLA TYPHIMURIUM, Strain/Indicator: TA100, Metabolic Activation: RAT, LIVER, S-9, AROCLOR 1254, Method: STANDARD PLATE): inactive; negative

NC(=O)C1(N2CCCCC2)CCN(CCCC(=O)c2ccc(F)cc2)CC1
mutagenic call (End Point: IN VITRO CHROMOSOMAL ABERRATIONS, Test System: HUMAN LYMPHOCYTES, Metabolic Activation: NONE): inactive; negative

Nc1ccc2nc3ccccc3cc2c1
mutagenic call (Test System: AMES SALMONELLA TYPHIMURIUM, Strain/Indicator: TA1535, Metabolic Activation: NONE, Method: PREINCUBATION): inactive; negative
mutagenic call (Test System: AMES SALMONELLA TYPHIMURIUM, Strain/Indicator: TA1535, Metabolic Activation: RAT, LIVER, S-9, TETRACHLOROBIPHENYL, Method: PREINCUBATION): active; positive
mutagenic call (Test System: AMES SALMONELLA TYPHIMURIUM, Strain/Indicator: TA1537, Metabolic Activation: NONE, Method: PREINCUBATION): active; positive
mutagenic call (Test System: AMES SALMONELLA TYPHIMURIUM, Strain/Indicator: TA1537, Metabolic Activation: RAT, LIVER, S-9, TETRACHLOROBIPHENYL, Method: PREINCUBATION): active; positive
mutagenic call (Test System: AMES SALMONELLA TYPHIMURIUM, Strain/Indicator: TA1538, Metabolic Activation: NONE, Method: PREINCUBATION): inactive; negative
mutagenic call (Test System: AMES SALMONELLA TYPHIMURIUM, Strain/Indicator: TA1538, Metabolic Activation: RAT, LIVER, S-9, TETRACHLOROBIPHENYL, Method: PREINCUBATION): active; positive
mutagenic call (Test System: AMES SALMONELLA TYPHIMURIUM, Strain/Indicator: TA1975, Metabolic Activation: RAT, LIVER, S-9, TETRACHLOROBIPHENYL, Method: PREINCUBATION): inactive; negative
mutagenic call (Test System: AMES SALMONELLA TYPHIMURIUM, Strain/Indicator: TA1977, Metabolic Activation: NONE, Method: PREINCUBATION): inactive; negative
mutagenic call (Test System: AMES SALMONELLA TYPHIMURIUM, Strain/Indicator: TA1977, Metabolic Activation: RAT, LIVER, S-9, TETRACHLOROBIPHENYL, Method: PREINCUBATION): active; positive
mutagenic call (Test System: AMES SALMONELLA TYPHIMURIUM, Strain/Indicator: TA1978, Metabolic Activation: RAT, LIVER, S-9, TETRACHLOROBIPHENYL, Method: PREINCUBATION): active; positive

O=Nc1ccccc1-c1ccccc1
mutagenic call [2]: inactive; negative
mutagenic call [3]: active; positive
